Test results reported in patent US20040259866A1, “Calcium channel blockers comprising two benzhydril moieties” (priority 1998, published 2004).
Where two headings read alike, the source gives them in different places.

Key:
[1] = biological target: T1, human α1G subunits (T-type channels) (Homo sapiens, UniProt O43497); assay: Block of α1G T-type channels, patch clamp in HEK cell lines (Example 8); type: cell-based
T1 construct: expressed in transfected cells
Experimental: Standard patch-clamp techniques were employed to identify blockers of T-type currents. Briefly, previously described HEK cell lines stably expressing human α1G subunits were used for all the recordings (passage #: 4-20, 37° C., 5% CO2). To obtain T-type currents, plastic dishes containing semi-confluent cells were positioned on the stage of a ZEISS AXIOVERT S100 microscope after replacing the culture medium with external solution (see below). Whole-cell patches were obtained using pipettes (borosilicate glass with filament, O.D.: 1.5 mm, I.D.: 0.86 mm, 10 cm length), fabricated on a SUTTER P-97 puller with resistance values of ˜5 MΩ (see below for internal medium).
In the non-inactivating protocol, the holding potential is set at −110 mV and with a pre-pulse at −100 mV for 1 second prior to the test pulse at −40 mV for 50 ms; in the inactivation protocol, the pre-pulse is at approximately −85 mV for 1 second, which inactivates about 15% of the T-type channels, as shown below. [formula]
Test compounds were dissolved in external solution, 0.1-0.01% DMSO. After ˜10 min rest, they were applied by gravity close to the cell using a WPI microfil tubing. The “non-inactivated” pre-pulse was used to examine the resting block of a compound. The “inactivated” protocol was employed to study voltage-dependent block, but the initial data shown below were mainly obtained using the non-inactivated protocol only. IC50 values are shown for various compounds of the invention in Table 5.

[2] = biological target: T2, rat α1B+α2b+β1b channels (N-type channels) (Rattus norvegicus, UniProt Q02294); assay: Block of α1B N-type channels, whole cell patch recordings (Example 6); type: cell-based; conditions: HEK 293, 5 mM barium as charge carrier
T2 construct: expressed in transfected cells
T2 sequence (Q02294 whole entry): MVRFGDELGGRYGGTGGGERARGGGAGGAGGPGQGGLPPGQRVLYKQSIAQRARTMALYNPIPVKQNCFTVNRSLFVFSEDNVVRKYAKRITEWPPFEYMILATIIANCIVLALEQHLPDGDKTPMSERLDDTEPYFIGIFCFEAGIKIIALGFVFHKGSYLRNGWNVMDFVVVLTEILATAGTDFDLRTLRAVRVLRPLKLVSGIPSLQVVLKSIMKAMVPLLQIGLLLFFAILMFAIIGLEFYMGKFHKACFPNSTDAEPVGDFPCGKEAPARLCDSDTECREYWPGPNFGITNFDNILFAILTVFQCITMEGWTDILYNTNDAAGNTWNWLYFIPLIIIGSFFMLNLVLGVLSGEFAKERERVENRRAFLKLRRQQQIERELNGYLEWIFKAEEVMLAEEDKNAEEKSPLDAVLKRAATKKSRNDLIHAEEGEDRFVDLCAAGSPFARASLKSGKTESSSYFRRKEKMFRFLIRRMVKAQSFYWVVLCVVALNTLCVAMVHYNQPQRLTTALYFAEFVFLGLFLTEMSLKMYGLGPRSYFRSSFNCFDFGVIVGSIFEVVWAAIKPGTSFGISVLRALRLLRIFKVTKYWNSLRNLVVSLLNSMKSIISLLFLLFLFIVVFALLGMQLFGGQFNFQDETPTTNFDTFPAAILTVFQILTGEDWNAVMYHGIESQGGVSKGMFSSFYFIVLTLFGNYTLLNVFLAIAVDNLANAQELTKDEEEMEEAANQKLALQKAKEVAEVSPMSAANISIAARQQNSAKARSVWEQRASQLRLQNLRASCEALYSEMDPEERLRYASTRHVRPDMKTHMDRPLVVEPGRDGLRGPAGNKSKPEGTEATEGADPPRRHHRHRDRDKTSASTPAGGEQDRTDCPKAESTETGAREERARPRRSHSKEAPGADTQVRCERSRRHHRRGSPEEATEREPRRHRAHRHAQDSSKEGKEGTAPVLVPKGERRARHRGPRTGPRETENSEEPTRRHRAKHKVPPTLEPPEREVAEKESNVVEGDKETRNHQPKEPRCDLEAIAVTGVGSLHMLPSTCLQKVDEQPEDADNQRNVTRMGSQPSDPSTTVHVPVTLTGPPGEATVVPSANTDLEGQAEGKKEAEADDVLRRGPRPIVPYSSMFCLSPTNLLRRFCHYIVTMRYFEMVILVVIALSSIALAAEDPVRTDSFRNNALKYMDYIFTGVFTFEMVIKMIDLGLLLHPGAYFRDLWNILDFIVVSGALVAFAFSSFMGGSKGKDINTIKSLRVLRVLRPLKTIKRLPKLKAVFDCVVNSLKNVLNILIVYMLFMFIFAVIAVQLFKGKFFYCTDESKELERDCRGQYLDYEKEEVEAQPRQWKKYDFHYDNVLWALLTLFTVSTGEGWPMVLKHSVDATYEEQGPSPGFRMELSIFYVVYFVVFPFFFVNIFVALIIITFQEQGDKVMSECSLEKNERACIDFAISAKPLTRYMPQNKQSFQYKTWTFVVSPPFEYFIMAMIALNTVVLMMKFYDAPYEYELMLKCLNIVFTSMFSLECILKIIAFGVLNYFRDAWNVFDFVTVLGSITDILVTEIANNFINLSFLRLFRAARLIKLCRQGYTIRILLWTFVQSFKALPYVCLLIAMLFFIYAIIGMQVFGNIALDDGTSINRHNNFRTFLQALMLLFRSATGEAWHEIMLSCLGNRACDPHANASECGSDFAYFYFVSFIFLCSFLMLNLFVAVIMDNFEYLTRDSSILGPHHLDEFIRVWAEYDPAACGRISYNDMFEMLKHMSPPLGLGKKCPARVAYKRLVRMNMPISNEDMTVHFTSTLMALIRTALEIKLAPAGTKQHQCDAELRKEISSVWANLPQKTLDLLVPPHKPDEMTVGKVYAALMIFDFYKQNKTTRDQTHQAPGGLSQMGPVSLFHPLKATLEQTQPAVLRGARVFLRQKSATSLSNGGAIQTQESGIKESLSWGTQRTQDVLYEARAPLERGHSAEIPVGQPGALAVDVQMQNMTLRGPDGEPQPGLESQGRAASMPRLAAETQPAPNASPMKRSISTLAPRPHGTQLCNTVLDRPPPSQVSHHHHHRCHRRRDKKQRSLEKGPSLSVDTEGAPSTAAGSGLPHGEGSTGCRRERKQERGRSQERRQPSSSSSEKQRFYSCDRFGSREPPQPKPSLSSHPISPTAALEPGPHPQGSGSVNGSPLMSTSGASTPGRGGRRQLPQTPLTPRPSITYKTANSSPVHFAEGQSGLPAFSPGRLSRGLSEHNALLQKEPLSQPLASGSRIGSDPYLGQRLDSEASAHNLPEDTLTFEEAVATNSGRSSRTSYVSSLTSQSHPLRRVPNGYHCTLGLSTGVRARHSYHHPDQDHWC
Experimental: Antagonist activity was measured using whole cell patch recordings on human embryonic kidney cells either stably or transiently expressing rat α1B+α2b+β1b channels (N-type channels) with 5 mM barium as a charge carrier.
For transient expression, host cells, such as human embryonic kidney cells, HEK 293 (ATCC# CRL 1573) were grown in standard DMEM medium supplemented with 2 mM glutamine and 10% fetal bovine serum. HEK 293 cells were transfected by a standard calcium-phosphate-DNA coprecipitation method using the rat α1B+β1b+α2δ N-type calcium channel subunits in a vertebrate expression vector (for example, see Current Protocols in Molecular Biology).
After an incubation period of from 24 to 72 hrs the culture medium was removed and replaced with external recording solution (see below). Whole cell patch clamp experiments were performed using an Axopatch 200B amplifier (Axon Instruments, Burlingame, Calif.) linked to an IBM compatible personal computer equipped with pCLAMP software. Borosilicate glass patch pipettes (Sutter Instrument Co., Novato, Calif.) were polished (Microforge, Narishige, Japan) to a resistance of about 4 MΩ when filled with cesium methanesulfonate internal solution (composition in MM: 109 CsCH3SO4, 4 MgCl2, 9 EGTA, 9 HEPES, pH 7.2). Cells were bathed in 5 mM Ba^++ (in mM: 5 BaCl2, 1 MgCl2, 10 HEPES, 40 tetraethylammonium chloride, 10 glucose, 87.5 CsCl pH 7.2). […] Drugs were perfused directly into the vicinity of the cells using a microperfusion system.
Normalized dose-response curves were fit (Sigmaplot 4.0, SPSS Inc., Chicago, Ill.) by the Hill equation to determine IC50 values. Steady-state inactivation curves were plotted as the normalized test pulse amplitude following 5 s inactivating prepulses at +10 mV increments. Inactivation curves were fit (Sigmaplot 4.0) with the Boltzman equation, Ipeak (normalized)=1/(1+exp((V-Vh)z/25.6)), where V and Vh are the conditioning and half inactivation potentials, respectively, and z is the slope factor.
Using the procedure set forth above, various compounds of the invention were tested for their ability to block N-type calcium channels.

rat formalin model = assay: Formalin-induced pain model; type: in vivo; conditions: 30 mg/kg IP, 10 minutes prior to formalin, saline control=100%
Experimental: The effects of intrathecally delivered compounds of the invention on the rat formalin model were measured. The compounds were reconstituted to stock solutions of approximately 10 mg/ml in propylene glycol. Eight Holtsman male rats of 275-375 g size were randomly selected per test compound.
The following study groups were used, with test compounds, vehicle control (propylene glycol) and saline delivered intraperitoneally (IP):
Prior to initiation of drug delivery baseline behavioral and testing data were taken.
On the morning of testing, a small metal band (0.5 g) was loosely placed around the right hind paw. The rat was placed in a cylindrical Plexiglas chamber for adaptation a minimum of 30 minutes. Test compound or vehicle control was administered 10 minutes prior to formalin injection (50 μl of 5% formalin) into the dorsal surface of the right hindpaw of the rat. The animal was then placed into the chamber of the automated formalin apparatus where movement of the formalin injected paw was monitored and the number of paw flinches tallied by minute over the next 60 minutes. (See Malmberg, A. M., and Yaksh, T. L., Anesthesiology (1993) 79:270-281.)
Results are presented as Maximum Possible Effect±SEM, where saline control=100%.

[3] = 100 mV (non-inactivating protocol)
[4] = 0.067 Hz, read-out: Block of α1B N-type Channels IC50, 0.067 Hz
[5] = 0.2 Hz, read-out: Block of α1B N-type Channels IC50, 0.2 Hz
[6] = 80 mV (inactivation protocol), read-out: Block of α1G T-type Channels IC50, 80 mV
[7] = 100 mV (non-inactivating protocol), read-out: Block of α1G T-type Channels IC50, 100 mV

T1 sequence (O43497 whole entry): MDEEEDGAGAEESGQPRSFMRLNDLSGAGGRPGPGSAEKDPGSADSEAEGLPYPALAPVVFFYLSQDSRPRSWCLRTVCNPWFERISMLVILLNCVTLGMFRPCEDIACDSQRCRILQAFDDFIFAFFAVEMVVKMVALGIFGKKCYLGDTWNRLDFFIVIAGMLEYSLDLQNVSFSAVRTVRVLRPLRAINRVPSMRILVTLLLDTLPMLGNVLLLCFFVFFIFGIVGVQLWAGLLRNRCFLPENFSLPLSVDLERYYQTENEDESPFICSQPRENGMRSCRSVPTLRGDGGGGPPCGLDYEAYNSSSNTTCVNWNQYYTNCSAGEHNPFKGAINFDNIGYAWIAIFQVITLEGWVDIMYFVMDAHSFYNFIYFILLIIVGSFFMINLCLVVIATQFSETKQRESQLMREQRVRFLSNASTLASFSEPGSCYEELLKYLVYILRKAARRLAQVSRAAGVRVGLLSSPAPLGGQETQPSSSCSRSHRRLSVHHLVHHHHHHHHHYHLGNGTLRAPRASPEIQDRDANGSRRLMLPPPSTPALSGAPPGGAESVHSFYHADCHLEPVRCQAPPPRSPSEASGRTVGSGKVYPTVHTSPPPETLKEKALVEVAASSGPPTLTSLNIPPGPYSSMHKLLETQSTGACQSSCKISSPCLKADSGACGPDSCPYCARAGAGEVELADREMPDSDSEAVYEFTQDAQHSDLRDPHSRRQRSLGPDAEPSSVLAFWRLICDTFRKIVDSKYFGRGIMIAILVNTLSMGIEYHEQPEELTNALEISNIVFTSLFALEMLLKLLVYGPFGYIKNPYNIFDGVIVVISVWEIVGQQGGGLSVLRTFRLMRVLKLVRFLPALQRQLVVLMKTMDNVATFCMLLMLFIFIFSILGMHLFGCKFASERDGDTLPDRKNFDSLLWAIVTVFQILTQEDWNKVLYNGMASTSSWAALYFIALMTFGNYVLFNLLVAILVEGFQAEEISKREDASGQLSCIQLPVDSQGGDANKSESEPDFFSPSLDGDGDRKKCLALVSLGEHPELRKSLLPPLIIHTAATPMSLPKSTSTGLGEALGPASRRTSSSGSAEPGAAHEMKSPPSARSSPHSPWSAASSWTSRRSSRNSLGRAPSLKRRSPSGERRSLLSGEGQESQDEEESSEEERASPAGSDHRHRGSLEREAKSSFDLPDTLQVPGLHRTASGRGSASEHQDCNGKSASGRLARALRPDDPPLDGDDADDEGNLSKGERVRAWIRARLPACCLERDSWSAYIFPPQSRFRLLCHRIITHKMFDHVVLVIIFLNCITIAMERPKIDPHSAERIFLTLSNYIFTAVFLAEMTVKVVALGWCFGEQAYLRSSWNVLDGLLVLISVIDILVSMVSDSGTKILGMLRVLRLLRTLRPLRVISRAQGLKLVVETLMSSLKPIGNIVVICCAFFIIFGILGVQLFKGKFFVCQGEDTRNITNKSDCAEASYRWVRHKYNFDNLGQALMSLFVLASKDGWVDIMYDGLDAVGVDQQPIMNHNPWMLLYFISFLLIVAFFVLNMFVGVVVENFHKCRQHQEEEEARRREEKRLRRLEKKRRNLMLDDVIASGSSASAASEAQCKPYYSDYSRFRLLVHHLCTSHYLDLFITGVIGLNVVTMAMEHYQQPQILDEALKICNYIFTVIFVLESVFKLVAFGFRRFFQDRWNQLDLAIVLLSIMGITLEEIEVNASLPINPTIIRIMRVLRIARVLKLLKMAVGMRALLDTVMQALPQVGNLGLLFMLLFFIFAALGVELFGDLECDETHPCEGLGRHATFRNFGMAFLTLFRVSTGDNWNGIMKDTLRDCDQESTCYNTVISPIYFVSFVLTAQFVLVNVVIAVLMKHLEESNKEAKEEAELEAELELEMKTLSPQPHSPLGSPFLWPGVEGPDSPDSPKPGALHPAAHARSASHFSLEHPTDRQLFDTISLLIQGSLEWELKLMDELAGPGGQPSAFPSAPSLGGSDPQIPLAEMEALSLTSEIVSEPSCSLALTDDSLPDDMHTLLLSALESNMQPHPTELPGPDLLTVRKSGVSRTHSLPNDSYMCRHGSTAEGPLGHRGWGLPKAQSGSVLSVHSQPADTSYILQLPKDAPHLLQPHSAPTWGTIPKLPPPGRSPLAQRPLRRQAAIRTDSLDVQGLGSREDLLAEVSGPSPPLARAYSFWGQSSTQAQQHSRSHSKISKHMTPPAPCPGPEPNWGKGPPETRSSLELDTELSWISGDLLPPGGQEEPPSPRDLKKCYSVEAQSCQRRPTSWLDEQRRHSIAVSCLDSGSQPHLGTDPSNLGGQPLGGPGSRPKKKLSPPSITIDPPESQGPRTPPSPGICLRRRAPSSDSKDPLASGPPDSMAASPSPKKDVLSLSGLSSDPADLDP

| SMILES | IC50 [2, 4] [µM] | IC50 [2, 5] [µM] | IC50 [1, 7] [µM] | further results |
| --- | --- | --- | --- | --- |
| O=C(CC(c1ccccc1)c1ccccc1)N1CCN(C(c2ccccc2)c2ccc(OCc3ccccc3)cc2)CC1 (centres unmarked) [Compound P17] | 0.286 | 0.233 | – | Block of α1G T-type Channels IC50, 100 mV [1, 3]: No effect |
| CC1CN(C(c2ccccc2)c2ccccc2)CCN1C(=O)CC(c1ccccc1)c1ccccc1 (centres unmarked) [Compound P37] | 0.162 | 0.024 | 0.991 | IC50 [1, 6]: 0.474 µM |
| COc1ccc(C(c2ccc3c(c2)OCO3)N2CCN(C(=O)CC(c3ccccc3)c3ccccc3)CC2)cc1 (centres unmarked) [Compound P26] | 0.71 | 0.533 | – | – |
| COc1ccc(C(c2ccccc2)N2CCN(C(=O)CC(c3ccccc3)c3ccccc3)CC2)cc1 (centres unmarked) [Compound P20] | 0.32 | 0.25 | – | – |
| O=C(CC(c1ccccc1)c1ccccc1)N1CCN(C(c2ccccc2)c2ccc(O)cc2)CC1 (centres unmarked) [Compound P49] | 0.34 | 0.32 | 2.7 | IC50 [1, 6]: 0.835 µM |
| O=C(O)C1CN(C(c2ccccc2)c2ccccc2)CCN1C(=O)CC1c2ccccc2-c2ccccc21 (centres unmarked) [Compound P38] | 0.2 | 0.16 | 0.699 | IC50 [1, 6]: 0.181 µM |
| O=C(CN(c1ccccc1)c1ccccc1)N1CCN(C(c2ccccc2)c2cccc(Cl)c2Cl)CC1 (centres unmarked) [Compound P50] | – | – | – | Maximum Possible Effect ± SEM, Phase I (rat formalin model): 60 ± 7%; Maximum Possible Effect ± SEM, Phase II (rat formalin model): 63 ± 10%; Maximum Possible Effect ± SEM, Phase IIA (rat formalin model): 63 ± 13% |
| O=C(CC(c1ccccc1)c1ccccc1)N1CCN(C(c2ccccc2)c2ccc(Cl)c(Cl)c2)CC1 (centres unmarked) [Compound P30] | > 1 | > 1 | > 1 | – |
| CCOC(=O)C1CN(C(c2ccccc2)c2ccccc2)CCN1C(=O)CC1c2ccccc2-c2ccccc21 (centres unmarked) [Compound P39] | 0.24 | 0.19 | 2.2 | IC50 [1, 6]: 0.768 µM |
| COc1cc(C(c2ccccc2)N2CCN(C(=O)CC(c3ccccc3)c3ccccc3)CC2)cc(OC)c1OC (centres unmarked) [Compound P25] | 1.09 | 0.513 | – | – |
| O=C(CC(c1ccccc1)c1ccccc1)N1CCN(C(c2ccccc2)c2cc(Cl)cc(Cl)c2)CC1 (centres unmarked) [Compound P9] | 0.23 | 0.17 | > 1 | – |
| COc1cc(OC)cc(C(c2ccccc2)N2CCN(C(=O)CC(c3ccccc3)c3ccccc3)CC2)c1 (centres unmarked) [Compound P14] | 0.32 | 0.21 | – | – |
| O=C(CC(c1ccccc1)c1ccccc1)N1CCN(C2c3ccccc3S(=O)(=O)c3ccccc32)CC1 [Compound P27] | 0.854 | 0.552 | – | – |
| CCOC(=O)C1CN(C(c2ccccc2)c2ccccc2)CCN1C(=O)CC(c1ccccc1)c1ccccc1 (centres unmarked) [Compound P41] | 0.42 | 0.39 | 1.01 | IC50 [1, 6]: 0.363 µM |
| O=C(CC1c2ccccc2-c2ccccc21)N1CCN(C(c2ccccc2)c2ccccc2)CC1 [Compound P33] | – | – | 0.404 | – |
| O=C(CC(c1ccccc1)c1ccccc1)N1CCN(C(c2ccccc2)c2cc(C(F)(F)F)cc(C(F)(F)F)c2)CC1 (centres unmarked) [Compound P10] | 0.55 | 0.45 | – | – |
| O=C(CC(c1ccccc1)c1ccccc1)N1CCN(C2c3ccccc3CCc3ccccc32)CC1 [P32 (HC1)] | > 1 | 0.83 | – | – |

| SMILES | IC50 [2, 4] [µM] | IC50 [2, 5] [µM] | IC50 [1, 7] [µM] | further results |
| --- | --- | --- | --- | --- |
| N#CC1CN(C(c2ccccc2)c2ccccc2)CCN1C(=O)CC(c1ccccc1)c1ccccc1 (centres unmarked) [Compound P45] | 0.23 | 0.22 | 10 | IC50 [1, 6]: 0.833 µM |
| COc1ccc(C(c2ccc(OC)cc2)N2CCN(C(=O)CC(c3ccccc3)c3ccccc3)CC2)cc1 [Compound P19] | 0.36 | 0.249 | 0.745 | – |
| O=C(CC(c1ccccc1)c1ccccc1)N1CCN(C2c3ccccc3-c3ccccc32)CC1 [Compound P31] | – | – | 0.371 | – |
| O=C(CC(c1ccccc1)c1ccccc1)N1CCN(C(c2ccccc2)c2cccc(Cl)c2Cl)CC1 (centres unmarked) [Compound P15] | 0.348 | 0.217 | 0.063 | – |
| O=C(CC(c1ccccc1)c1ccccc1)N1CCN(C(c2ccccc2)c2ccc(F)cc2)CC1 (centres unmarked) [Compound P24] | 0.6 | 0.38 | – | – |
| O=C(CC(c1ccccc1)c1ccccc1)N1CCN(C(c2ccccc2)c2ccccc2C(F)(F)F)CC1 (centres unmarked) [Compound P22] | 0.538 | 0.301 | – | – |
| COc1cc(C(c2ccccc2)N2CCN(C(=O)CC(c3ccccc3)c3ccccc3)CC2)cc(OC)c1O (centres unmarked) [Compound P21] | 0.437 | 0.252 | – | – |
| O=C(CC(c1ccccc1)c1ccccc1)N1CCN(C(c2ccccc2)c2ccccc2)C(=O)C1 [Compound P34, 1-Benzhydryl-4-(3,3-diphenyl-propionyl)-piperazin-2-one] | 0.737 | 0.68 | – | – |
| O=C(CC(c1ccccc1)c1ccccc1)N1CCN(C(c2ccccc2)c2c(Cl)cccc2Cl)CC1 (centres unmarked) [Compound P13] | 0.3 | 0.21 | < 1 | – |
| O=C(CC(c1ccccc1)c1ccccc1)N1CCN(C(c2ccccc2)c2ccccc2OC(F)F)CC1 (centres unmarked) [Compound P12] | 0.34 | 0.19 | – | – |
| CC(C)(C)c1ccc(C(c2ccccc2)N2CCN(C(=O)CC(c3ccccc3)c3ccccc3)CC2)cc1 (centres unmarked) [Compound P11] | 0.37 | 0.19 | – | – |
| O=C(CC(c1ccccc1)c1ccccc1)N1CCN(C(c2ccccc2)c2cc(C(F)(F)F)cc(C(F)(F)F)c2)CC1 (centres unmarked) [P10 (HC1)] | 0.3 | 0.19 | – | – |
| O=C(CC(c1ccccc1)c1ccccc1)N1CCN(C2c3ccccc3Oc3ccccc32)CC1 [Compound P16] | 0.29 | 0.22 | – | – |
| O=C(CC(c1ccccc1)c1ccccc1)N1CCN(C(c2ccccc2)c2ccc(Cl)cc2Cl)CC1 (centres unmarked) [P29 (HC1)] | > 1 | > 1 | – | – |
| CCOC(=O)C1CN(C(c2ccccc2)c2ccccc2)CCN1C(=O)CC(c1ccccc1)c1ccccc1 (centres unmarked) [Compound P43] | 0.167 | 0.083 | 2.38 | IC50 [1, 6]: 0.279 µM |
| O=C(O)C1CN(C(c2ccccc2)c2ccccc2)CCN1C(=O)CC(c1ccccc1)c1ccccc1 (centres unmarked) [Compound P42] | 1.9 | 1.49 | – | IC50 [1, 6]: 1.84 µM; Block of α1G T-type Channels IC50, 100 mV [1, 3]: no effect |
| Cc1ccc(C(c2ccccc2)N2CCN(C(=O)CC(c3ccccc3)c3ccccc3)CC2)cc1 (centres unmarked) [Compound P23] | 0.49 | 0.31 | – | – |
